Results from ChEMBL document CHEMBL4387741, “Optimization of novel reversible Bruton's tyrosine kinase inhibitors identified using Tethering-fragment-based screens” (Bioorg Med Chem, 2019).

What was measured:
[1] = molecular target: NUAK family SNF1-like kinase 1 (Homo sapiens) (UniProt O60285); test: Inhibition of wild-type human partial length ARK5 (E25 to I332 residues) expressed in bacterial expression system at 1 uM by Kinomescan method relative to control
[2] = tested on: Epidermal growth factor receptor (Homo sapiens), P00533 [UNDEFINED MUTATION]; test: Inhibition of human partial length EGFR S752-I759del mutant expressed in bacterial expression system at 1 uM by Kinomescan method relative to control
[3] = tested on: Receptor-type tyrosine-protein kinase FLT3 (Homo sapiens), P36888 [D835H]; test: Inhibition of human partial length FLT3 D835H mutant (V592 to Y969 residues) expressed in bacterial expression system at 1 uM by Kinomescan method relative to control
[4] = molecular target: Beta-adrenergic receptor kinase 1 (Homo sapiens) (UniProt P25098); test: Inhibition of wild-type human full length GRK2 (M1 to L689 residues) expressed in mammalian expression system at 1 uM by Kinomescan method relative to control
Sequence of Beta-adrenergic receptor kinase 1 (Homo sapiens) (P25098 whole entry, the tested form may be a part): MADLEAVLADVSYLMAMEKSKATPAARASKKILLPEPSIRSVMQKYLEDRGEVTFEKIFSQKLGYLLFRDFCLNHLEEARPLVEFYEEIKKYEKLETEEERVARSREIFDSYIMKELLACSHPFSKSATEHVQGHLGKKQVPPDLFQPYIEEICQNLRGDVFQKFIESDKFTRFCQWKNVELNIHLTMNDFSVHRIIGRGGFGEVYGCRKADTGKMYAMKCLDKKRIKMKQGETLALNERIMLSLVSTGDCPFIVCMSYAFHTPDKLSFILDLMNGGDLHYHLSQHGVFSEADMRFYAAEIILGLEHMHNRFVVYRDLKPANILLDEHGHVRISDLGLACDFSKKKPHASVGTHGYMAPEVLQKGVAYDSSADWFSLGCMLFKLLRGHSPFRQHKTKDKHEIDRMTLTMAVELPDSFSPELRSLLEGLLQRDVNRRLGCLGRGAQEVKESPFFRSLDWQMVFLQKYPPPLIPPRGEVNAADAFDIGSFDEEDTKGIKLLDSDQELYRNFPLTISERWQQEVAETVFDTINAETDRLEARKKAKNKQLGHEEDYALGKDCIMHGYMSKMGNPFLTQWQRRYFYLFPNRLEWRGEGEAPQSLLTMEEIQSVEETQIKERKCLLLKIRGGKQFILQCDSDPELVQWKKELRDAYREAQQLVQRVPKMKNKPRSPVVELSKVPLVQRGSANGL

[5] = molecular target: Interleukin-1 receptor-associated kinase 4 (Homo sapiens) (UniProt Q9NWZ3); test: Inhibition of wild-type human partial length IRAK4 (M1 to S460 residues) expressed in mammalian expression system at 1 uM by Kinomescan method relative to control
[6] = molecular target: Serine/threonine-protein kinase STK11 (Homo sapiens) (UniProt Q15831); test: Inhibition of wild-type human full length LKB1 (M1 to Q433 residues) expressed in bacterial expression system at 1 uM by Kinomescan method relative to control
Sequence of Serine/threonine-protein kinase STK11 (Homo sapiens) (Q15831 whole entry, the tested form may be a part): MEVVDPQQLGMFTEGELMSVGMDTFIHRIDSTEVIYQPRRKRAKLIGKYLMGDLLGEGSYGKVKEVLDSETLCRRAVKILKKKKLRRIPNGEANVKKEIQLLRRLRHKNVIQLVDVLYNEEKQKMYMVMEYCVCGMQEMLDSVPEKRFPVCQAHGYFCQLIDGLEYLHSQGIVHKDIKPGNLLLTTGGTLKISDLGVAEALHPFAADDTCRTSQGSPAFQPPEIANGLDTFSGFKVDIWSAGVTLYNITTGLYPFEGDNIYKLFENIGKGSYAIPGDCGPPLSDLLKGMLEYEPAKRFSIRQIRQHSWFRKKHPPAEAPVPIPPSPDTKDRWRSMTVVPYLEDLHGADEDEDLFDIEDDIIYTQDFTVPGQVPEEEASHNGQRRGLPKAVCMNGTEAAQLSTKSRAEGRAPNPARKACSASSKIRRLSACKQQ

[7] = molecular target: Leukocyte tyrosine kinase receptor (Homo sapiens) (UniProt P29376); test: Inhibition of wild-type human partial length LTK (P422 to S744 residues) expressed in bacterial expression system at 1 uM by Kinomescan method relative to control
[8] = molecular target: Dual specificity mitogen-activated protein kinase kinase 2 (Homo sapiens) (UniProt P36507); test: Inhibition of wild-type human full length MEK2 (M1 to V400 residues) expressed in mammalian expression system at 1 uM by Kinomescan method relative to control
[9] = molecular target: Cyclin-dependent kinase 15 (Homo sapiens) (UniProt Q96Q40); test: Inhibition of wild-type human full length PFTAIRE2 (M1 to W384 residues) expressed in bacterial expression system at 1 uM by Kinomescan method relative to control
[10] = molecular target: Ribosomal protein S6 kinase alpha-5 (Homo sapiens) (UniProt O75582); test: Inhibition of wild-type human partial length C-terminal RPS6KA5 kinase domain 2 (V390 to T718 residues) expressed in bacterial expression system at 1 uM by Kinomescan method relative to control
Sequence of Ribosomal protein S6 kinase alpha-5 (Homo sapiens) (O75582 whole entry, looked up, the tested form may be a part): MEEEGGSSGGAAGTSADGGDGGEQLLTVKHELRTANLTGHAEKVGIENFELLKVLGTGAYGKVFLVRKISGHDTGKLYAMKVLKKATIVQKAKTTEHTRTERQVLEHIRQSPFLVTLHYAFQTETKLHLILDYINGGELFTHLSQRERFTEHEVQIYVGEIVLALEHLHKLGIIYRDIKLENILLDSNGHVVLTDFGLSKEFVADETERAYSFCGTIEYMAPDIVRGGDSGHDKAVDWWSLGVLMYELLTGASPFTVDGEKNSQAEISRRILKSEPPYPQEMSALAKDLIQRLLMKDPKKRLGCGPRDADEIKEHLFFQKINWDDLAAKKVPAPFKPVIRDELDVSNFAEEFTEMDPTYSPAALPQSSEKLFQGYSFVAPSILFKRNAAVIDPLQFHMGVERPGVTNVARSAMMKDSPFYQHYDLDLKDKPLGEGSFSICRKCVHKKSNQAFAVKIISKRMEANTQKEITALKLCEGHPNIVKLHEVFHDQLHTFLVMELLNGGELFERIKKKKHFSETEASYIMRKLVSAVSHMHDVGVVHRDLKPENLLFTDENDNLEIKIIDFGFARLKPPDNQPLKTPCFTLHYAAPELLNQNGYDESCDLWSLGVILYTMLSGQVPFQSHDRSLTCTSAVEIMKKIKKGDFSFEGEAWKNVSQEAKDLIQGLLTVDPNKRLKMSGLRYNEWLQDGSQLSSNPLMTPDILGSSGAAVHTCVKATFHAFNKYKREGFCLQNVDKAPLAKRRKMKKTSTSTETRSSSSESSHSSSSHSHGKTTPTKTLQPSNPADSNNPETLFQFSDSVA

[11] = molecular target: Ribosomal protein S6 kinase alpha-6 (Homo sapiens) (UniProt Q9UK32); test: Inhibition of wild-type human partial length C-terminal RSK4 kinase domain 2 (I401 to Y711 residues) expressed in bacterial expression system at 1 uM by Kinomescan method relative to control
Sequence of Ribosomal protein S6 kinase alpha-6 (Homo sapiens) (Q9UK32 whole entry, the tested form may be a part): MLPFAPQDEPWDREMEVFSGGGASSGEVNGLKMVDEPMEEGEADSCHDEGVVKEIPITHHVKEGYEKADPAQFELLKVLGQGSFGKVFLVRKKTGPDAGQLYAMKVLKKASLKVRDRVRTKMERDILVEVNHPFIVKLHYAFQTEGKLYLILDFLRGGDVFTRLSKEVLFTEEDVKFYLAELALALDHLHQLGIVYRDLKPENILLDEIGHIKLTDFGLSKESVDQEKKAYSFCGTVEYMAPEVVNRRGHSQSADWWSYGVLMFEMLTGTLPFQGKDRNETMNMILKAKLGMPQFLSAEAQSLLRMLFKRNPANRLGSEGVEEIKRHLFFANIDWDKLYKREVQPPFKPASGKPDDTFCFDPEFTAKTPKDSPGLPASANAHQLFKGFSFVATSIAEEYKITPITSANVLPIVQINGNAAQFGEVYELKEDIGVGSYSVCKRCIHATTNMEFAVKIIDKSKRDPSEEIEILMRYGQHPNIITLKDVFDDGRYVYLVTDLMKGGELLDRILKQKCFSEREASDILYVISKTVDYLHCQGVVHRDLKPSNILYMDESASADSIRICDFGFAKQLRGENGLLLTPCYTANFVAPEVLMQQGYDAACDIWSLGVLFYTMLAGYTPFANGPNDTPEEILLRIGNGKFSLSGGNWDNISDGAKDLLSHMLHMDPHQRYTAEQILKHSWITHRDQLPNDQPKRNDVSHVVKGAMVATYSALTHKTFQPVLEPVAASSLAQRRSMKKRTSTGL

[12] = molecular target: Tyrosine-protein kinase Srms (Homo sapiens) (UniProt Q9H3Y6); test: Inhibition of wild-type human partial length SRMS (L208 to P488 residues) expressed in mammalian expression system at 1 uM by Kinomescan method relative to control
Sequence of Tyrosine-protein kinase Srms (Homo sapiens) (Q9H3Y6 whole entry, the tested form may be a part): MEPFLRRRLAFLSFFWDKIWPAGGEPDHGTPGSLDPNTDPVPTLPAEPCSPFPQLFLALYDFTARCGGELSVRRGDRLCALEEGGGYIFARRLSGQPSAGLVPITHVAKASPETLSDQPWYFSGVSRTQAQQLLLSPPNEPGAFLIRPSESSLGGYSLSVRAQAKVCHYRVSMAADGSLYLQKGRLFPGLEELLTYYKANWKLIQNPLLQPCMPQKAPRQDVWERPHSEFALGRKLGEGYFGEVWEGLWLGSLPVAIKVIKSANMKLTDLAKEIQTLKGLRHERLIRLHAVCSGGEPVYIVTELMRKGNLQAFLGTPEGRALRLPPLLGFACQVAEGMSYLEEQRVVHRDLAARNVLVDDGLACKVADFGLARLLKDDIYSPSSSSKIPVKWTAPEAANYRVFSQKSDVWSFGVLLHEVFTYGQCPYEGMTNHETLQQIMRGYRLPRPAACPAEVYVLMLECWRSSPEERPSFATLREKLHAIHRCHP

[13] = molecular target: Aurora kinase B (Homo sapiens) (UniProt Q96GD4); test: Inhibition of wild-type human partial length AURKB (D25 to A303 residues) expressed in mammalian expression system at 10 uM by Kinomescan method relative to control
Sequence of Aurora kinase B (Homo sapiens) (Q96GD4 whole entry, the tested form may be a part): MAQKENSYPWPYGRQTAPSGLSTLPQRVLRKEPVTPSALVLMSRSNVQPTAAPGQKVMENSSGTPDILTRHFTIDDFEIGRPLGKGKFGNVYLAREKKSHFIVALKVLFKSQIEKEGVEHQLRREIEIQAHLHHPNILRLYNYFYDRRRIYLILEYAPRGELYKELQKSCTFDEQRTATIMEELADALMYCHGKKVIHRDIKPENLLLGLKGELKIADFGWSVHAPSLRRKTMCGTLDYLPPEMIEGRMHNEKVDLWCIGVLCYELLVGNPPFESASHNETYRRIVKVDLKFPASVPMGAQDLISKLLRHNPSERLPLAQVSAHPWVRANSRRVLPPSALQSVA

[14] = molecular target: Bone morphogenetic protein receptor type-1B (Homo sapiens) (UniProt O00238); test: Inhibition of wild-type human partial length BMPR1B (D178 to L502 residues) expressed in mammalian expression system at 10 uM by Kinomescan method relative to control
[15] = molecular target: Calcium/calmodulin-dependent protein kinase type 1B (Homo sapiens) (UniProt Q6P2M8); test: Inhibition of wild-type human partial length CAMK1B (W9 to A311 residues) expressed in mammalian expression system at 10 uM by Kinomescan method relative to control
[16] = molecular target: Cyclin-dependent kinase 4 (Homo sapiens) (UniProt P11802); test: Inhibition of wild-type human full length CDK4 (M1 to E303 residues) expressed in mammalian expression system at 10 uM by Kinomescan method relative to control
[17] = molecular target: Cyclin-dependent kinase-like 1 (Homo sapiens) (UniProt Q00532); test: Inhibition of wild-type human full length CDKL1 (M1 to I358 residues) expressed in mammalian expression system at 10 uM by Kinomescan method relative to control
Sequence of Cyclin-dependent kinase-like 1 (Homo sapiens) (Q00532 whole entry, the tested form may be a part): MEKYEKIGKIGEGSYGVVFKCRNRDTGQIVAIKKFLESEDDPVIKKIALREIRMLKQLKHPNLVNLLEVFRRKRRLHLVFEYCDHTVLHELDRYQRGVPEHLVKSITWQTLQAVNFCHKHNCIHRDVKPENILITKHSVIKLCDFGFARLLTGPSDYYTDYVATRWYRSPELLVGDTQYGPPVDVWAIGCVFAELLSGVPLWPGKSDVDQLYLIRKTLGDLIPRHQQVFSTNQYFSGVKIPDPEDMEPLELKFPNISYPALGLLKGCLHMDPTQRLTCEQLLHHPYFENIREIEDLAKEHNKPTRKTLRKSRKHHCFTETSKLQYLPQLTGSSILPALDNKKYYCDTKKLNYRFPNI

[18] = tested on: Epidermal growth factor receptor (Homo sapiens), P00533 [G719C]; test: Inhibition of human partial length EGFR G719C mutant (R669 to V1011 residues) expressed in bacterial expression system at 10 uM by Kinomescan method relative to control
[19] = molecular target: Ephrin type-A receptor 3 (Homo sapiens) (UniProt P29320); test: Inhibition of wild-type human partial length EPHA3 (D604 to K889 residues) expressed in bacterial expression system at 10 uM by Kinomescan method relative to control
[20] = tested on: Receptor-type tyrosine-protein kinase FLT3 (Homo sapiens), P36888 [N841I]; test: Inhibition of human partial length FLT3 N841I mutant (V592 to Y969 residues) expressed in bacterial expression system at 10 uM by Kinomescan method relative to control
[21] = molecular target: Homeodomain-interacting protein kinase 3 (Homo sapiens) (UniProt Q9H422); test: Inhibition of wild-type human partial length HIPK3 (M153 to N562 residues) expressed in mammalian expression system at 10 uM by Kinomescan method relative to control
[22] = molecular target: Hormonally up-regulated neu tumor-associated kinase (Homo sapiens) (UniProt P57058); test: Inhibition of wild-type human partial length HUNK (A31 to K354 residues) expressed in bacterial expression system at 10 uM by Kinomescan method relative to control
Sequence of Hormonally up-regulated neu tumor-associated kinase (Homo sapiens) (P57058 whole entry, the tested form may be a part): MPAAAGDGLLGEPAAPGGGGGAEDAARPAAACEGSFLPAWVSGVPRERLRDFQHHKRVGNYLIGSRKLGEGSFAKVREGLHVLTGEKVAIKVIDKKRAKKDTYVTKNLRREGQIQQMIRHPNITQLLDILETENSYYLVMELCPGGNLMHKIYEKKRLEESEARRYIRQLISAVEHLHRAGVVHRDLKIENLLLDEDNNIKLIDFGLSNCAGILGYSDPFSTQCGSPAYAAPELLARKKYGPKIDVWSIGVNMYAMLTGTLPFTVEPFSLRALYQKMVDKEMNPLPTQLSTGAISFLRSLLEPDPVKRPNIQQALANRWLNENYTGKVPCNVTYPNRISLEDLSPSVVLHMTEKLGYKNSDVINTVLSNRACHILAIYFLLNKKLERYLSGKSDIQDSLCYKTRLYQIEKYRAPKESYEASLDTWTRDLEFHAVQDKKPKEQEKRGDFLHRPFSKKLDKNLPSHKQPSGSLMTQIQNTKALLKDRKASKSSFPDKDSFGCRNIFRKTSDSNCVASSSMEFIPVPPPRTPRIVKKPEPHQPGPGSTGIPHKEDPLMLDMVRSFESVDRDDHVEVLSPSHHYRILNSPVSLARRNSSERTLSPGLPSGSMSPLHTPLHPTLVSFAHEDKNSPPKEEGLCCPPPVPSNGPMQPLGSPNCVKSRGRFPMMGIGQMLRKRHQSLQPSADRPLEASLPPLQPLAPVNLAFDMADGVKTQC

[23] = molecular target: Mitogen-activated protein kinase kinase kinase 15 (Homo sapiens) (UniProt Q6ZN16); test: Inhibition of wild-type human partial length MAP3K15 (T625 to L932 residues) expressed in mammalian expression system at 10 uM by Kinomescan method relative to control
[24] = molecular target: Mitogen-activated protein kinase kinase kinase kinase 3 (Homo sapiens) (UniProt Q8IVH8); test: Inhibition of wild-type human partial length MAP4K3 (M1 to D301 residues) expressed in bacterial expression system at 10 uM by Kinomescan method relative to control
[25] = molecular target: Serine/threonine-protein kinase Nek2 (Homo sapiens) (UniProt P51955); test: Inhibition of wild-type human partial length NEK2 (M1 to K309 residues) expressed in bacterial expression system at 10 uM by Kinomescan method relative to control
Sequence of Serine/threonine-protein kinase Nek2 (Homo sapiens) (P51955 whole entry, the tested form may be a part): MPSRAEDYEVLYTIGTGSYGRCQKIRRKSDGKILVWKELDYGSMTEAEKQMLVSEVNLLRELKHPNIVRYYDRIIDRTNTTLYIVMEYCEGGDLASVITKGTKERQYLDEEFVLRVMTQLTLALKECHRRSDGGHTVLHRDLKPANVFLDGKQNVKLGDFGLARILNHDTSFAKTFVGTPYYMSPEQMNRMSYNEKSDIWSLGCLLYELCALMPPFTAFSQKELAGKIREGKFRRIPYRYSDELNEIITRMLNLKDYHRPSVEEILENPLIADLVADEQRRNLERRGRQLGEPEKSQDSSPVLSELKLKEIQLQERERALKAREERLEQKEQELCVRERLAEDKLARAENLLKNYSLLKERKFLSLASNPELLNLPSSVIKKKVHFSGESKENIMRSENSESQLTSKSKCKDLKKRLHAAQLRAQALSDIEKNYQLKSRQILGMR

[26] = molecular target: Serine/threonine-protein kinase PAK 3 (Homo sapiens) (UniProt O75914); test: Inhibition of wild-type human full length PAK3 (M1 to R544 residues) expressed in bacterial expression system at 10 uM by Kinomescan method relative to control
[27] = molecular target: Serine/threonine-protein kinase SIK2 (Homo sapiens) (UniProt Q9H0K1); test: Inhibition of wild-type human full length SIK2 (M1 to N926 residues) expressed in bacterial expression system at 10 uM by Kinomescan method relative to control

O=C(Nc1cccc([C@@H]2CN(c3ncnc4[nH]ccc34)CCN2CCO)c1)Nc1c(F)cccc1N1CCCC1
inhibition [1]: 45% | inhibition [2]: 100% | inhibition [3]: 9.6% | inhibition [4]: 96% | inhibition [5]: 91% | inhibition [6]: 87% | inhibition [7]: 100% | inhibition [8]: 73% | inhibition [9]: 91% | inhibition [10]: 96% | inhibition [11]: 88% | inhibition [12]: 76%

O=C(Nc1cccc([C@H]2CCCN(c3ncnc4[nH]ccc34)C2)c1)Nc1ccccc1N1CCCC1
inhibition [13]: 1.1% | inhibition [14]: 46% | inhibition [15]: 46% | inhibition [16]: 100% | inhibition [17]: 74% | inhibition [18]: 86% | inhibition [19]: 74% | inhibition [20]: 12% | inhibition [21]: 47% | inhibition [22]: 100% | inhibition [23]: 50% | inhibition [24]: 47% | inhibition [25]: 94% | inhibition [26]: 4.8% | inhibition [27]: 84%
